Literature values, collected in patent EP3865125A1, “PHARMACEUTICAL COMPOSITION COMPRISING ELIGLUSTAT” (Kashiv Biosciences, LLC, priority 2020, dated 2021).
Read-outs that look alike come from different tables or passages of the source.

Tests used:
[1] = dogs, 50-mg/kg dose
[2] = mice, 50-mg/kg dose
[3] = not given; remark: listed apart in the source
[4] = rats, 50-mg/kg dose

CCCCCCCC(=O)N[C@H](CN1CCCC1)[C@H](O)c1ccc2c(c1)OCCO2 [Eliglustat]
oral bioavailability [1]: 42%
oral bioavailability [2]: 8%
solubility: high solubility
absolute bioavailability ([3]; CERDELGA capsule, CHMP assessment report): 4.49% ± 4.13%
systemic exposure AUC0-12 at steady state compared to after the first dose (AUC0-inf) ([3]; multiple oral doses of 84 mg twice daily in EMs): up to 2 fold
oral bioavailability ([3]; oral route, significant first pass metabolism): less than 5%
oral bioavailability [4]: 39%
